Measurements: ChEMBL document CHEMBL1145390, “Synthesis and preliminary biological characterization of new semisynthetic derivatives of ramoplanin” (J Med Chem, 2007)
Converted amounts (≈) assume the structure as drawn.

What was measured:
Staphylococcus aureus [1] = experiment: Antibacterial activity against methicillin-resistant and vancomycin-intermediate resistant Staphylococcus aureus clinical isolate after 24 hrs by broth microdilution method; format: functional
Enterococcus faecalis [2] = experiment: Antibacterial activity against Enterococcus faecalis after 24 hrs by broth microdilution method; format: functional
Staphylococcus aureus [3] = experiment: Antibacterial activity against methicillin-resistant Staphylococcus aureus clinical isolate after 24 hrs by broth microdilution method; format: functional; settings: read-out: MIC
Staphylococcus aureus [4] = experiment: Antibacterial activity against vancomycin-intermediate resistant Staphylococcus aureus clinical isolate after 24 hrs by broth microdilution method; format: functional
Candida albicans = experiment: Antifungal activity against Candida albicans SKF-2270 after 24 hrs by broth microdilution method; format: functional
Streptococcus pyogenes = experiment: Antibacterial activity against Streptococcus pyogenes C203 after 24 hrs by broth microdilution method; format: functional; settings: C203, 24 h
Enterococcus faecalis [5] = experiment: Antibacterial activity against vancomycin A-resistant Enterococcus faecalis after 24 hrs by broth microdilution method; format: functional
Enterococcus faecium [6] = experiment: Antibacterial activity against Enterococcus faecium after 24 hrs by broth microdilution method; format: functional
Escherichia coli = experiment: Antibacterial activity against Escherichia coli SKF-12140 after 24 hrs by broth microdilution method; format: functional
Staphylococcus aureus [7] = experiment: Antibacterial activity against Staphylococcus aureus Smith after 24 hrs by broth microdilution method; format: functional
[8] = Toxicity assessed as hemolysis in erythrocytes at 90 mg/L; format: cell-based, Erythrocyte; settings: human; for hemolysis at 90 mg/L: erythrocytes, read-out: Activity; for Activity: erythrocyte
Enterococcus faecium [9] = experiment: Antibacterial activity against vancomycin A-resistant Enterococcus faecium clinical isolate after 24 hrs by broth microdilution method; format: functional
[10] = Toxicity assessed as hemolysis in erythrocytes at 180 mg/L; format: cell-based, Erythrocyte; settings: human; for hemolysis at 180 mg/L: erythrocytes, read-out: Activity; for Activity: erythrocyte

SMILES | MIC (Staphylococcus aureus [1]; read-out: MIC) | MIC (Enterococcus faecalis [2]; read-out: MIC) | MIC (Staphylococcus aureus [3]) | MIC (Staphylococcus aureus [4]) | MIC (Candida albicans; read-out: MIC) | MIC (Streptococcus pyogenes; read-out: MIC) | MIC (Enterococcus faecalis [5]; read-out: MIC) | MIC (Enterococcus faecium [6]; read-out: MIC) | MIC (Escherichia coli; read-out: MIC) | MIC (Staphylococcus aureus [7]; read-out: MIC) | hemolysis at 90 mg/L [8] | MIC (Enterococcus faecium [9]; read-out: MIC) | hemolysis at 180 mg/L [10] | also measured
CC(C)C[C@@H]1NC(=O)CNC(=O)[C@H](c2ccc(O)cc2)NC(=O)[C@@H]([C@@H](C)O)NC(=O)[C@H](c2ccc(O[C@H]3O[C@H](CO)[C@@H](O)[C@H](O)[C@@H]3O[C@H]3O[C@H](CO)[C@@H](O)[C@H](O)[C@@H]3O)cc2)NC(=O)[C@@H](CCCN)NC(=O)[C@H](Cc2ccccc2)NC(=O)[C@H]([C@@H](C)O)NC(=O)[C@@H](c2ccc(O)cc2)NC(=O)[C@H](c2ccc(O)cc2)NC(=O)[C@@H](C(C)C)NC(=O)[C@@H](CCCN)NC(=O)[C@@H](c2ccc(O)cc2)NC(=O)[C@@H](CNC(=O)[C@H](CC(N)=O)NC(=O)COc2ccccc2)[C@@H](C(N)=O)OC(=O)[C@H](c2ccc(O)c(Cl)c2)NC(=O)[C@@H](C)NC1=O | 32 µg/mL (≈ 12.5 µM) | 8 µg/mL (≈ 3.12 µM) | 8 µg/mL (≈ 3.12 µM) | 16 µg/mL (≈ 6.24 µM) | > 32 µg/mL | 0.06 µg/mL (≈ 0.0234 µM) | 4 µg/mL (≈ 1.56 µM) | 4 µg/mL (≈ 1.56 µM) | > 32 µg/mL | 4 µg/mL (≈ 1.56 µM) | 0% | 4 µg/mL (≈ 1.56 µM) | 0% | 
Cc1ccc(CC(=O)N[C@@H](CC(N)=O)C(=O)NC[C@@H]2C(=O)N[C@H](c3ccc(O)cc3)C(=O)N[C@H](CCCN)C(=O)N[C@H](C(C)C)C(=O)N[C@@H](c3ccc(O)cc3)C(=O)N[C@H](c3ccc(O)cc3)C(=O)N[C@@H]([C@@H](C)O)C(=O)N[C@@H](Cc3ccccc3)C(=O)N[C@H](CCCN)C(=O)N[C@@H](c3ccc(O[C@H]4O[C@H](CO)[C@@H](O)[C@H](O)[C@@H]4O[C@H]4O[C@H](CO)[C@@H](O)[C@H](O)[C@@H]4O)cc3)C(=O)N[C@H]([C@@H](C)O)C(=O)N[C@@H](c3ccc(O)cc3)C(=O)NCC(=O)N[C@@H](CC(C)C)C(=O)N[C@H](C)C(=O)N[C@@H](c3ccc(O)c(Cl)c3)C(=O)O[C@@H]2C(N)=O)cc1 |  | 0.002 µg/mL (≈ 0.000781 µM) | 0.002 µg/mL (≈ 0.000781 µM) | 0.008 µg/mL (≈ 0.00312 µM) |  |  | 0.002 µg/mL (≈ 0.000781 µM) | 0.004 µg/mL (≈ 0.00156 µM) |  | 0.001 µg/mL (≈ 0.00039 µM) |  | 0.002 µg/mL (≈ 0.000781 µM) |  | MIC (Staphylococcus aureus [1]): 8 µg/mL (≈ 3.12 µM); MIC (Candida albicans): > 32 µg/mL; MIC (Streptococcus pyogenes): 0.06 µg/mL (≈ 0.0234 µM); MIC (Escherichia coli): > 32 µg/mL; Activity [8]: 0%; Activity [10]: 0%
CCCCCC(=O)N[C@@H](CC(N)=O)C(=O)NC[C@@H]1C(=O)N[C@H](c2ccc(O)cc2)C(=O)N[C@H](CCCN)C(=O)N[C@H](C(C)C)C(=O)N[C@@H](c2ccc(O)cc2)C(=O)N[C@H](c2ccc(O)cc2)C(=O)N[C@@H]([C@@H](C)O)C(=O)N[C@@H](Cc2ccccc2)C(=O)N[C@H](CCCN)C(=O)N[C@@H](c2ccc(O[C@H]3O[C@H](CO)[C@@H](O)[C@H](O)[C@@H]3O[C@H]3O[C@H](CO)[C@@H](O)[C@H](O)[C@@H]3O)cc2)C(=O)N[C@H]([C@@H](C)O)C(=O)N[C@@H](c2ccc(O)cc2)C(=O)NCC(=O)N[C@@H](CC(C)C)C(=O)N[C@H](C)C(=O)NC(c2ccc(O)c(Cl)c2)C(=O)O[C@@H]1C(N)=O (some centres undefined) | 32 µg/mL (≈ 12.7 µM) | 2 µg/mL (≈ 0.791 µM) | 4 µg/mL (≈ 1.58 µM) | 16 µg/mL (≈ 6.33 µM) | > 32 µg/mL | 0.125 µg/mL (≈ 0.0494 µM) | 2 µg/mL (≈ 0.791 µM) | 4 µg/mL (≈ 1.58 µM) | > 32 µg/mL | 4 µg/mL (≈ 1.58 µM) | 0% | 4 µg/mL (≈ 1.58 µM) | 8% | 
CCCCOc1ccc(C(=O)N[C@@H](CC(N)=O)C(=O)NC[C@@H]2C(=O)N[C@H](c3ccc(O)cc3)C(=O)N[C@H](CCCN)C(=O)N[C@H](C(C)C)C(=O)N[C@@H](c3ccc(O)cc3)C(=O)N[C@H](c3ccc(O)cc3)C(=O)N[C@@H]([C@@H](C)O)C(=O)N[C@@H](Cc3ccccc3)C(=O)N[C@H](CCCN)C(=O)N[C@@H](c3ccc(O[C@H]4O[C@H](CO)[C@@H](O)[C@H](O)[C@@H]4O[C@H]4O[C@H](CO)[C@@H](O)[C@H](O)[C@@H]4O)cc3)C(=O)N[C@H]([C@@H](C)O)C(=O)N[C@@H](c3ccc(O)cc3)C(=O)NCC(=O)N[C@@H](CC(C)C)C(=O)N[C@H](C)C(=O)N[C@@H](c3ccc(O)c(Cl)c3)C(=O)O[C@@H]2C(N)=O)cc1OCCCC | 16 µg/mL (≈ 5.97 µM) | 1 µg/mL (≈ 0.373 µM) | 8 µg/mL (≈ 2.99 µM) | 16 µg/mL (≈ 5.97 µM) | > 32 µg/mL | 1 µg/mL (≈ 0.373 µM) | 1 µg/mL (≈ 0.373 µM) | 1 µg/mL (≈ 0.373 µM) | > 32 µg/mL | 2 µg/mL (≈ 0.747 µM) | 0% | 1 µg/mL (≈ 0.373 µM) | 47% | 
CCCCC(=O)N[C@@H](CC(N)=O)C(=O)NC[C@@H]1C(=O)N[C@H](c2ccc(O)cc2)C(=O)N[C@H](CCCN)C(=O)N[C@H](C(C)C)C(=O)N[C@@H](c2ccc(O)cc2)C(=O)N[C@H](c2ccc(O)cc2)C(=O)N[C@@H]([C@@H](C)O)C(=O)N[C@@H](Cc2ccccc2)C(=O)N[C@H](CCCN)C(=O)N[C@@H](c2ccc(O[C@H]3O[C@H](CO)[C@@H](O)[C@H](O)[C@@H]3O[C@H]3O[C@H](CO)[C@@H](O)[C@H](O)[C@@H]3O)cc2)C(=O)N[C@H]([C@@H](C)O)C(=O)N[C@@H](c2ccc(O)cc2)C(=O)NCC(=O)N[C@@H](CC(C)C)C(=O)N[C@H](C)C(=O)N[C@@H](c2ccc(O)c(Cl)c2)C(=O)O[C@@H]1C(N)=O | > 32 µg/mL | 8 µg/mL (≈ 3.18 µM) | 8 µg/mL (≈ 3.18 µM) | 32 µg/mL (≈ 12.7 µM) | > 32 µg/mL | 0.125 µg/mL (≈ 0.0497 µM) | 8 µg/mL (≈ 3.18 µM) | 8 µg/mL (≈ 3.18 µM) | > 32 µg/mL | 8 µg/mL (≈ 3.18 µM) | 0% | 8 µg/mL (≈ 3.18 µM) | 0% | 
CCCC(=O)N[C@@H](CC(N)=O)C(=O)NC[C@@H]1C(=O)N[C@H](c2ccc(O)cc2)C(=O)N[C@H](CCCN)C(=O)N[C@H](C(C)C)C(=O)N[C@@H](c2ccc(O)cc2)C(=O)N[C@H](c2ccc(O)cc2)C(=O)N[C@@H]([C@@H](C)O)C(=O)N[C@@H](Cc2ccccc2)C(=O)N[C@H](CCCN)C(=O)N[C@@H](c2ccc(O[C@H]3O[C@H](CO)[C@@H](O)[C@H](O)[C@@H]3O[C@H]3O[C@H](CO)[C@@H](O)[C@H](O)[C@@H]3O)cc2)C(=O)N[C@H]([C@@H](C)O)C(=O)N[C@@H](c2ccc(O)cc2)C(=O)NCC(=O)N[C@@H](CC(C)C)C(=O)N[C@H](C)C(=O)N[C@@H](c2ccc(O)c(Cl)c2)C(=O)O[C@@H]1C(N)=O | > 32 µg/mL | 16 µg/mL (≈ 6.4 µM) | 32 µg/mL (≈ 12.8 µM) | > 32 µg/mL | > 32 µg/mL | 0.5 µg/mL (≈ 0.2 µM) | 16 µg/mL (≈ 6.4 µM) | 32 µg/mL (≈ 12.8 µM) | > 32 µg/mL | > 32 µg/mL | 0% | 16 µg/mL (≈ 6.4 µM) | 2% | 
CCCCCCCC(=O)N[C@@H](CC(N)=O)C(=O)NC[C@@H]1C(=O)N[C@H](c2ccc(O)cc2)C(=O)N[C@H](CCCN)C(=O)N[C@H](C(C)C)C(=O)N[C@@H](c2ccc(O)cc2)C(=O)N[C@H](c2ccc(O)cc2)C(=O)N[C@@H]([C@@H](C)O)C(=O)N[C@@H](Cc2ccccc2)C(=O)N[C@H](CCCN)C(=O)N[C@@H](c2ccc(O[C@H]3O[C@H](CO)[C@@H](O)[C@H](O)[C@@H]3O[C@H]3O[C@H](CO)[C@@H](O)[C@H](O)[C@@H]3O)cc2)C(=O)N[C@H]([C@@H](C)O)C(=O)N[C@@H](c2ccc(O)cc2)C(=O)NCC(=O)N[C@@H](CC(C)C)C(=O)N[C@H](C)C(=O)N[C@@H](c2ccc(O)c(Cl)c2)C(=O)O[C@@H]1C(N)=O |  |  | 0.0005 µg/mL (≈ 0.000196 µM) | 0.002 µg/mL (≈ 0.000782 µM) |  |  |  |  |  |  |  |  |  | MIC (Staphylococcus aureus [1]): 4 µg/mL (≈ 1.56 µM); MIC (Enterococcus faecalis [2]): 0.125 µg/mL (≈ 0.0489 µM); MIC (Candida albicans): > 32 µg/mL; MIC (Streptococcus pyogenes): < 0.03 µg/mL; MIC (Enterococcus faecalis [5]): 0.06 µg/mL (≈ 0.0235 µM); MIC (Enterococcus faecium [6]): 0.25 µg/mL (≈ 0.0978 µM); MIC (Escherichia coli): > 32 µg/mL; MIC (Staphylococcus aureus [7]): 0.25 µg/mL (≈ 0.0978 µM); Activity [8]: 0%; MIC (Enterococcus faecium [9]): 0.125 µg/mL (≈ 0.0489 µM); Activity [10]: 16%
CC(C)C[C@@H]1NC(=O)CNC(=O)[C@H](c2ccc(O)cc2)NC(=O)[C@@H]([C@@H](C)O)NC(=O)[C@H](c2ccc(O[C@H]3O[C@H](CO)[C@@H](O)[C@H](O)[C@@H]3O[C@H]3O[C@H](CO)[C@@H](O)[C@H](O)[C@@H]3O)cc2)NC(=O)[C@@H](CCCN)NC(=O)[C@H](Cc2ccccc2)NC(=O)[C@H]([C@@H](C)O)NC(=O)[C@@H](c2ccc(O)cc2)NC(=O)[C@H](c2ccc(O)cc2)NC(=O)[C@@H](C(C)C)NC(=O)[C@@H](CCCN)NC(=O)[C@@H](c2ccc(O)cc2)NC(=O)[C@@H](CNC(=O)[C@H](CC(N)=O)NC(=O)c2cccc3ccccc23)[C@@H](C(N)=O)OC(=O)[C@H](c2ccc(O)c(Cl)c2)NC(=O)[C@@H](C)NC1=O | 8 µg/mL (≈ 3.1 µM) | 0.5 µg/mL (≈ 0.193 µM) | 2 µg/mL (≈ 0.774 µM) | 8 µg/mL (≈ 3.1 µM) | > 32 µg/mL | ≤ 0.03 µg/mL | 0.5 µg/mL (≈ 0.193 µM) | 1 µg/mL (≈ 0.387 µM) | > 32 µg/mL | 1 µg/mL (≈ 0.387 µM) | 14% | 1 µg/mL (≈ 0.387 µM) | 25% | 
